Our source for the inhibition and EC50 values is patent US10188634B2, “3-(3H-imidazo[4,5-C]pyridin-2-yl)-1 H-pyrazolo[4,3-B]pyridines and therapeutic uses thereof” (Samumed, LLC, priority 2015, dated 2019).

Bounds are passed on as bounds.

Holding throughout (assay type): cell-based
The subject of test [1] is SW480 colon cancer cells. Kind of test: Cell viability assay (CellTiter-Blue) in SW480 colon cancer cells. As to conditions: Homo sapiens, 96 h; for inhibition at 10 µM: four days, CellTiter-Blue, read-out: percent inhibition at 10 μM (given for EC50 of >10 μM); for EC50: four days incubation, CellTiter-Blue cell viability. In outline:
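Four-day exposure of SW480 cells (~2×10^3/well) to compound from 10 μM down to 0.004 μM in 1:3 steps, in duplicate. Resorufin fluorescence from CellTiter-Blue after ~3 h served as the viability read-out. EC50 values came from nonlinear curve fits, with % inhibition at 10 μM given where EC50 >10 μM.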
(In general: The colour change of resazurin is a common sign of viable cells or microbes.)

Test [2] deals with IL-6 in THP-1 cells. Nature of the test: Inhibition of IL-6 in LPS-stimulated THP-1 human monocyte cells (HTRF). Conditions: IL-6 HTRF; for EC50: 500 ng/mL LPS, 22 hours; for inhibition at 10 µM: LPS, read-out: percent inhibition in brackets (given for EC50 >10 μM). In outline:
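IL-6 was quantified by HTRF ratio after LPS (500 ng/mL, 22 h) stimulation of THP-1 monocytes pretreated 2 h with compound, 10-point 1:3 dilutions from 10 μM, 0.1% DMSO. Cells were held in 1% FBS for 24 h beforehand. Values normalised to DMSO; four-parameter EC50, or % inhibition at 10 μM above that.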
A general note: In TR-FRET formats the signal depends on donor and acceptor labels being close together.

In test [3] the test system is Wnt activity (Sp5-Luc reporter, human Sp5 promoter with eight TCF/LEF binding sites) in SW480 colon carcinoma cells. Kind of test: Screening assay for Wnt activity: Sp5-Luc reporter gene assay in SW480 cells. Conditions: for inhibition at 10 µM: read-out: percent inhibition at 10 μM (given for EC50 of >10 μM); for EC50: 10-point dose-response starting from 10 μM, overnight incubation. In outline:
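Luminescence (BrightGlo) read after overnight 37 °C exposure of Sp5-Luc SW480 reporter cells, 4,000/well in 1% FBS, to compound dosed 1:3 over 10 points from 10 μM with 0.1% DMSO. Values normalized to DMSO-only cells, fitted with variable-slope four-parameter model; where EC50 exceeds 10 μM, % inhibition at 10 μM reported.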
For orientation: Reporter assays use an easily measured gene product as a stand-in for the process of interest.

The term inhibition denotes the drop in the measured response relative to a control, in per cent. Broadly, the EC50 is the concentration giving half of the maximal effect. High values mean weaker potency, low ones greater potency. On to `Cn1cc(-c2ccc3[nH]nc(-c4nc5c(-c6cc(F)cc(CNS(C)(=O)=O)c6)cncc5[nH]4)c3n2)cn1` [Compound 720, N-(3-Fluoro-5-(2-(5-(1-methyl-1H-pyrazol-4-yl)-1H-pyrazolo[4,3-b]pyridin-3-yl)-3H-imidazo[4,5-c]pyridin-7-yl)benzyl)methanesulfonamide], for which the inhibition at 10 µM was found to be 0% in test [1], 44.7% in test [2] and 16.4% in test [3]. Moreover, the EC50 in test [1], in test [2] and in test [3] was above 10 µM each time.
For the compound `Cn1cc(-c2ccc3[nH]nc(-c4nc5c(-c6ccc(F)cc6)cncc5[nH]4)c3n2)c(CO)n1` [Compound 1084, (4-(3-(7-(4-Fluorophenyl)-3H-imidazo[4,5-c]pyridin-2-yl)-1H-pyrazolo[4,3-b]pyridin-5-yl)-1-methyl-1H-pyrazol-3-yl)methanol], the inhibition at 10 µM in test [1] is 5.7%; in test [2], 4.1%; in test [3], 11.8%. Also, the EC50 in test [1], in test [2] and in test [3] was above 10 µM in each case.
For the compound `Cc1cn(-c2cncc3[nH]c(-c4n[nH]c5ccc(-c6cncc(CN7CCCC7)c6)nc45)nc23)cn1` [Compound 210, 3-(7-(4-Methyl-1H-imidazol-1-yl)-3H-imidazo[4,5-c]pyridin-2-yl)-5-(5-(pyrrolidin-1-ylmethyl)pyridin-3-yl)-1H-pyrazolo[4,3-b]pyridine], the inhibition at 10 µM stood at 4% in test [1], 13% in test [2] and 3.5% in test [3]. The concentration giving a half-maximal response (EC50) in test [1], in test [2] and in test [3] was above 10 µM in each case.
As to `Cc1cn(-c2cncc3[nH]c(-c4n[nH]c5ccc(-c6cncc(NC(=O)CC(C)C)c6)nc45)nc23)cn1` [Compound 198, 3-Methyl-N-(5-(3-(7-(4-methyl-1H-imidazol-1-yl)-3H-imidazo[4,5-c]pyridin-2-yl)-1H-pyrazolo[4,3-b]pyridin-5-yl)pyridin-3-yl)butanamide], the inhibition at 10 µM was 4.2% in test [1], 14.5% in test [2] and 1.8% in test [3]. Besides, the EC50 in test [1], in test [2] and in test [3] was above 10 µM each time.
For `Oc1cncc(-c2ccc3[nH]nc(-c4nc5c(-c6cccnc6)cncc5[nH]4)c3n2)c1` [Compound 537, 5-(3-(7-(Pyridin-3-yl)-3H-imidazo[4,5-c]pyridin-2-yl)-1H-pyrazolo[4,3-b]pyridin-5-yl)pyridin-3-ol], the inhibition at 10 µM in test [1] stood at 7.6%; in test [3] it was 9.9%. For the same compound, the EC50 in test [1] was above 10 µM; in test [2], 0.414 µM; in test [3], above 10 µM.
Consider `CCC(=O)Nc1cncc(-c2ccc3[nH]nc(-c4nc5c(-c6cccs6)cncc5[nH]4)c3n2)c1` [Compound 309, N-(5-(3-(7-(Thiophen-2-yl)-3H-imidazo[4,5-c]pyridin-2-yl)-1H-pyrazolo[4,3-b]pyridin-5-yl)pyridin-3-yl)propionamide], for which the inhibition at 10 µM in test [1] came to 0%; in test [2], 31.2%; in test [3], 2.4%. In addition, the concentration for a half-maximal effect (EC50) in test [1], in test [2] and in test [3] was above 10 µM in each case.
Regarding `c1cncc(-c2cncc3[nH]c(-c4n[nH]c5ccc(-c6cncc(OC7CCCCC7)c6)nc45)nc23)c1` [Compound 531, 5-(5-(Cyclohexyloxy)pyridin-3-yl)-3-(7-(pyridin-3-yl)-3H-imidazo[4,5-c]pyridin-2-yl)-1H-pyrazolo[4,3-b]pyridine], the results for the inhibition at 10 µM in test [1] and in test [3] were 15.5% and 24.3%, respectively. For the same compound, the EC50 is above 10 µM in test [1], 0.371 µM in test [2] and above 10 µM in test [3].
With `Cc1ncc(-c2ccc3[nH]nc(-c4nc5c(-c6cccc(F)c6)cncc5[nH]4)c3n2)n1C` [Compound 481, 5-(1,2-Dimethyl-1H-imidazol-5-yl)-3-(7-(3-fluorophenyl)-3H-imidazo[4,5-c]pyridin-2-yl)-1H-pyrazolo[4,3-b]pyridine], the EC50 in test [1] is 2.3 µM; in test [2], above 10 µM; in test [3], above 10 µM. Moreover, the inhibition at 10 µM in test [2] came out at 48.3%; in test [3], 46%.
Regarding `Cc1cn(-c2cncc3[nH]c(-c4n[nH]c5ccc(-c6cncc(NC(=O)C(C)(C)C)c6)nc45)nc23)cn1` [Compound 204, N-(5-(3-(7-(4-methyl-1H-imidazol-1-yl)-3H-imidazo[4,5-c]pyridin-2-yl)-1H-pyrazolo[4,3-b]pyridin-5-yl)pyridin-3-yl)pivalamide], the inhibition at 10 µM was 4.7% in test [1], 24.5% in test [2] and 0% in test [3]. Besides, the concentration for a half-maximal effect (EC50) in test [1], in test [2] and in test [3] was above 10 µM in each case.
With `c1cc(-c2cncc3[nH]c(-c4n[nH]c5ccc(-c6cncc(OC7CCNCC7)c6)nc45)nc23)ccn1` [Compound 548, 5-(5-(Piperidin-4-yloxy)pyridin-3-yl)-3-(7-(pyridin-4-yl)-3H-imidazo[4,5-c]pyridin-2-yl)-1H-pyrazolo[4,3-b]pyridine], the inhibition at 10 µM is 10.3% in test [1], 22.6% in test [2] and 16.1% in test [3]. For the same compound, the half-maximal effective concentration (EC50) in test [1], in test [2] and in test [3] was above 10 µM each time.
On to `c1cc2c(cc1-c1cncc3[nH]c(-c4n[nH]c5ccc(C6CCNCC6)nc45)nc13)OCO2` [Compound 1063, 3-(7-(Benzo[d][1,3]dioxol-5-yl)-3H-imidazo[4,5-c]pyridin-2-yl)-5-(piperidin-4-yl)-1H-pyrazolo[4,3-b]pyridine], for which the results for the inhibition at 10 µM in test [1], in test [2] and in test [3] were 4.8%, 32.7% and 10.5%, respectively. The half-maximal effective concentration (EC50) in test [1], in test [2] and in test [3] was above 10 µM each time.
For the compound `C1=C(c2ccc3[nH]nc(-c4nc5c(-c6ccc7c(c6)OCO7)cncc5[nH]4)c3n2)CCNC1` [Compound 1064, 3-(7-(Benzo[d][1,3]dioxol-5-yl)-3H-imidazo[4,5-c]pyridin-2-yl)-5-(1,2,3,6-tetrahydropyridin-4-yl)-1H-pyrazolo[4,3-b]pyridine], the inhibition at 10 µM in test [1] came to 0.1%; in test [2], 21.1%; in test [3], 9.5%. Moreover, the concentration giving a half-maximal response (EC50) in test [1], in test [2] and in test [3] was above 10 µM throughout.
Turning to `O=C(Nc1cncc(-c2ccc3[nH]nc(-c4nc5c(-c6ccsc6)cncc5[nH]4)c3n2)c1)c1ccccc1` [Compound 263, N-(5-(3-(7-(Thiophen-3-yl)-3H-imidazo[4,5-c]pyridin-2-yl)-1H-pyrazolo[4,3-b]pyridin-5-yl)pyridin-3-yl)benzamide], the inhibition at 10 µM is 0.3% in test [1], 36.3% in test [2] and 7.6% in test [3]. Moreover, the EC50 in test [1], in test [2] and in test [3] was above 10 µM throughout.
